{"source": "patent US20040152759A1", "about": "“Combination administration of an indolinone with a chemotherapeutic agent for cell proliferation disorders” (priority 2002, published 2004)", "key": {"NCI-H526 SCLC cells": {"system": "NCI-H526 SCLC cells", "assay": "NCI-H526 small cell lung carcinoma subcutaneous xenograft model", "format": "in vivo, human (xenograft in athymic nu/nu mice)", "settings": "dosing began day 18 after implantation", "experimental": "Methods for NCI-H526-Human Small Cell Lung Carcinoma Model\n1×10^5 to 1×10^6 tumor cells were injected into the subcutaneous region of the hind flank of female nu/nu mice (n=10). Tumor growth was monitored twice a week for 2-4 weeks by caliper measurements.\nNCI-H526 SCLC cells were cultured using standard technique in RPMI 1640 supplemented with 10% fetal bovine serum, 2 mM glutamine, 1 mM sodium pyruvate (Life Technologies Inc., Gaithersburg, Md.), and maintained routinely in a humidified chamber at 37° C. and 5% carbon dioxide.\nCells to be implanted in mice were harvested from cell culture flasks during exponential growth, washed once with sterile phosphate-buffered saline (PBS), counted, and resuspended in PBS to a suitable concentration prior to implantation.\nNine to twelve week old female athymic nu/nu mice purchased from Charles River Laboratories (Wilmington, Mass.) were used.\nMice received subcutaneous injections into the hind flank on Day 0 with 5×10^6 NCI-H526 cells. Subcutaneous tumor-bearing athymic mice (250-300 mm^3 tumor volume) were treated either PO once daily with Compound 1 to the end of the study, intraperitoneally once daily with Cisplatin for the first 5 days, or a combination of the two. […] Tumor growth was measured twice weekly using Vernier calipers for the duration of the treatment. Tumor volumes were calculated as the product of length× width× height."}, "[1]": {"system": "MX-1 human breast carcinoma", "format": "in vivo", "text": "Methods for MX1 Human Breast Cancer Model\nMice/Husbandry: Female nu/nu mice (Harlan), 13 weeks of age (at pair-match; Day 1), were fed ad libitum water and an irradiated standard rodent diet. Mice were housed in static microisolators on a 12-hour light cycle. The animal care and use program specifically complies with recommendations of the Guide for Care and Use of Laboratory Animals with respect to restraint, husbandry, surgical procedures, feed and fluid regulation, and veterinary care is AAALAC accredited.\nTumor Implantation: Mice were implanted subcutaneously with 1 mm^3 MX-1 human breast carcinoma fragments in the flank. Tumors were monitored initially twice weekly, and then daily as the neoplasms reached the desired size, approximately 100 mg. […] Estimated tumor weight was calculated using the formula:\nTumor Weight(mg)=w^2×L divided by 2\nwhere w=width and L=length in mm of a MX-1 carcinoma.\n(§1) Tumors were grown to a volume of approximately 100 mm^3 prior to dosing.\nThis example evaluates the effects of combined treatment of Compound 1 and Docetaxel on efficacy and toxicity in a human breast cancer model. Tumors were grown to a volume of approximately 100 mm^3 prior to dosing.\nThis example evaluates the effects of combined treatment of Compound 1 and 5-FU on efficacy and toxicity in a human breast cancer model\nas §1\nThis example evaluates the effects of combined treatment of Compound 1 and Doxorubicin Hydrochloride on efficacy and toxicity in a human breast cancer model.\nTumors were grown to a volume of approximately 100 mm^3 prior to dosing. […] (see FIG. 6)."}, "MDA-MB-435 tumor cells": {"system": "MDA-MB-435 tumor cells", "assay": "MDA-MB-435 orthotopic human breast carcinoma bone marrow colonization model (survival)", "format": "in vivo, human (xenograft in nu/nu mice)", "settings": "vehicle 46 days", "description": "Methods for the MDA-MB-435 Human Breast Cancer Model\n1×10^5 MDA-MB-435 tumor cells were injected into the left cardiac ventricle of female nu/nu mice (n=10). Mice were monitored for weight loss (>20%) and hind limb paralysis as an indicator of bone marrow colonization.\nThis example evaluates the effects of combined treatment of Compound 1 and Docetaxel on efficacy and toxicity in a human breast cancer model. Efficacy is indicated by improved survival, which, in turn, is indicated by hind-limb paralysis or weight loss (>20%) due to bone marrow colonization of tumor cells.\nTumor cells were injected into the mammary fat pad of female nu/nu mice and mice were monitored for weight loss (>20%) and hind limb paralysis as an indicator of bone marrow colonization of tumor cells.\nTumor cells were injected into the left cardiac ventricle of female nu/nu mice and mice were monitored for weight loss (>20%) and hind limb paralysis as an indicator of bone marrow colonization"}, "[2]": {"system": "LS174t human colon carcinoma", "format": "in vivo", "settings": "Day 23", "description": "Methods for LS174t Human Colon Cancer Model\n(§2) 1×10^5 to 1×10^6 tumor cells were injected into the subcutaneous region of the hind flank of female nu/nu mice (n=10). Tumor growth was monitored twice a week for 2-4 weeks by caliper measurement.\nas §1"}, "[3]": {"system": "HT-29 human colon carcinoma", "format": "in vivo", "settings": "Compound 1 20 mg/kg PO QD to end, monotherapy, Day 38", "description": "Methods for HT-29 Human Colon Cancer Model\nas §2, §1"}}, "note": "Where “and” joins values, the source holds several entries; their conditions need not be identical. Identical values can stand only once. Counter-ions that a name gives are not always drawn. Like-named read-outs stand apart in the source and are kept apart here."}
{"smiles": "N.N.[Cl][Pt][Cl]", "note": "[Cisplatin, reference compound]", "values": [{"measurement": "Day tumor reached 900 mm^3", "setting": "NCI-H526 SCLC cells; Cisplatin 1.5 mg/kg IP QD x 5, monotherapy", "value": 48, "unit": "days"}]}
{"smiles": "CCN(CC)CCNC(=O)c1c(C)[nH]c(/C=C2\\C(=O)Nc3ccc(F)cc32)c1C", "note": "[Compound 1, 5-(5-Fluoro-2-oxo-1,2-dihydroindol-3-ylidenemethyl)-2,4-dimethyl-1H-pyrrole-3-carboxylic acid(2-diethylamino-ethyl)amide]", "values": [{"measurement": "% Inhibition", "setting": "[1]; Biological Example 1, Compound 1 40 mg/kg PO QD to end, monotherapy, Day 20, 40 mg/kg", "value": "52% and 53%"}, {"measurement": "% Inhibition", "setting": "[1]; Biological Example 2, Compound 1 40 mg/kg PO QD to end, monotherapy, Day 17", "value": 63, "unit": "%"}, {"measurement": "% Inhibition", "setting": "[1]; Biological Example 3, Compound 1 40 mg/kg PO QD to end, monotherapy, Day 15", "value": 57, "unit": "%"}, {"measurement": "% Inhibition", "setting": "[1]; Biological Example 4, Compound 1 40 mg/kg PO QD to end, monotherapy, Day 14", "value": 62, "unit": "%"}, {"measurement": "Day tumor reached 900 mm^3", "setting": "NCI-H526 SCLC cells; Compound 1 40 mg/kg PO QD, monotherapy", "value": 41, "unit": "days"}, {"measurement": "Median Survival", "setting": "MDA-MB-435 tumor cells; Compound 1 40 mg/kg PO QD to end, monotherapy", "value": 52, "unit": "days"}, {"measurement": "% Inhibition", "setting": "[2]; Compound 1 40 mg/kg PO QD to end, monotherapy, 40 mg/kg", "value": "68% and 67.9%"}, {"measurement": "% Inhibition", "setting": "[3]", "value": "78% and 77.8%"}]}
{"smiles": "O=c1[nH]cc(F)c(=O)[nH]1", "note": "[Compound 5-FU, 5-Fluorouracil]", "values": [{"measurement": "% Inhibition", "setting": "[1]; Biological Example 3, 5-FU 100 mg/kg IV QWK x 3, monotherapy, Day 15", "value": 45, "unit": "%"}]}
{"smiles": "CCc1c2c(nc3ccc(OC(=O)N4CCC(N5CCCCC5)CC4)cc13)-c1cc3c(c(=O)n1C2)COC(=O)[C@]3(O)CC", "note": "[CPT-11, Irinotecan, reference compound]", "values": [{"measurement": "% Inhibition", "setting": "[2]; CPT-11 100 mg/kg IP QWK x 3, monotherapy, 100 mg/kg", "value": "64% and 63.6%"}]}
{"smiles": "COc1cccc2c1C(=O)c1c(O)c3c(c(O)c1C2=O)C[C@@](O)(C(=O)CO)C[C@@H]3O[C@H]1C[C@H](N)[C@H](O)[C@H](C)O1", "note": "[Doxorubicin Hydrochloride]", "values": [{"measurement": "% Inhibition", "setting": "[1]; Biological Example 4, Doxorubicin Hydrochloride 4 mg/kg IV QOD x 3, monotherapy, Day 14", "value": 48, "unit": "%"}]}
{"smiles": "CC(=O)O[C@@]12CO[C@@H]1C[C@H](O)[C@@]1(C)C(=O)[C@H](O)C3=C(C)[C@@H](OC(=O)[C@H](O)[C@@H](NC(=O)OC(C)(C)C)c4ccccc4)C[C@@](O)([C@@H](OC(=O)c4ccccc4)[C@H]21)C3(C)C", "note": "[Docetaxel]", "values": [{"measurement": "% Inhibition", "setting": "[1]; Biological Example 1, Docetaxel 10 mg/kg IV QWK x 3, monotherapy, Day 16", "value": 60, "unit": "%"}, {"measurement": "% Inhibition", "setting": "[1]; Biological Example 1, Docetaxel 15 mg/kg IV QWK x 3, monotherapy, Day 16", "value": 95, "unit": "%"}, {"measurement": "% Inhibition", "setting": "[1]; Biological Example 2, Docetaxel 10 mg/kg IV QWK x 3, monotherapy, Day 14", "value": 36, "unit": "%"}, {"measurement": "% Inhibition", "setting": "[1]; Biological Example 2, Docetaxel 15 mg/kg IV QWK x 3, monotherapy, Day 17", "value": 90, "unit": "%"}, {"measurement": "Median Survival", "setting": "MDA-MB-435 tumor cells; Docetaxel 5 mg/kg IP QWK x 3, monotherapy", "value": 52, "unit": "days"}]}
